Test results reported in patent US9034895B2, “Composition and methods for treating glioblastoma” (University of Washington Through its Center for …, priority 2010, dated 2015).

Assays:
[1] = system: T98g cells; experiment: Cell viability assay (WST-1), toxic potency and efficacy at T98g cells; format: cell-based; details: Homo sapiens, 72 h; for Emax: read-out: Toxic potency at T98g cells (percent efficacy); for EC50: read-out: Toxic potency at T98g cells potency μM; for cytotoxicity at 10 µM: read-out: Activity at killing T98g cells percent efficacy at 10 μM
Description: (§1) Cells were plated media supplemented with 10% serum in 96-well plates (10^4 cells per wellI; 0.1 ml per well). Once they reached ˜70% confluence, they were rinsed with PBS and kept for an additional 24 hrs in media supplemented with 1% serum, at which time drugs or vehicle (DMSO, 0.1%, prepared in 10 μl serum-free media) were directly added to each well. After 3 days, cell viability was assessed using the Cell Proliferation Reagent WST-1 (Roche, Indianapolis, Ind.). Briefly, WST-1 reagent (10 μl) was added to each well for 3 hrs at 37° C. with 5% CO2 and WST-1 products were read at 450 nm using Packard SpectraCount™.
Because the strongest toxic effect of WIN55212-2 was measured in T98g cells, these cells are used as readout to study the structure activity relationship (SAR) of AAI compounds at inducing cell death through AAI receptors.

[2] = system: T98g, MDA231 and sknmc cells; experiment: Cell viability assay, killing of CB1/CB2-lacking cell lines; format: cell-based, human; details: for potencies and efficacies at killing T98g, MDA231 and sknmc cells: in words
Description: as §1
The expression level of CB1 and CB2 mRNA is determined by qPCR in eight human cell lines and found three, T98g, MDA231 and sknmc cells, that lack CB1 and CB2 mRNA (Table 1).
Based on this evidence, it was determined if WIN55212-2 differentially kills T98g, MDA231 and sknmc cells, which provides an index of AAI receptor functionality in these cells. Also tested is Δ^9-THC (classic cannabinoid) and CP55940 (non-classical cannabinoid).

[3] = system: protein expressed by NG108-15 cells; details: cited from earlier work
[4] = biological target: T1, CB1 (Mus musculus, UniProt P47746); experiment: Radioligand competition binding, [3H]-CP55940, CB1-expressing HEK293 membranes; details: FIG. 2 (CB1 not shown)
T1 construct: plasmids containing full coding region of mouse CB1 and CB2; expressed in transfected cells
Description: (§2) Stable CB1 and CB2 expressing HEK293 cell lines were generated using plasmids containing full coding region of mouse CB1 and CB2.
(§3) Fragments were amplified from total RNA of cell lines by reverse transcriptase-polymerase chain reaction (RT-PCR). Sequence was confirmed and the fragment was cloned into the EcoRI site of the pIRES2-eGFP-express vector. Cells were grown to approximately 80% confluence in 10 cm cell culture dishes, transfected with the cDNA pIRES-eGFP-vector containing the murine CB1 or CB2 receptor using LipofectAMINE™ 2000 reagent in the serum-free media Opti-MEM 1 according to the manufacturer's description. Cells were subject to FACS sorting 48 h after transfection and single cell sorted based on dsRed expression into 96-well plates. Of the dsRed expressing positive clones, 3 were validated for CB1 and CB2 protein expression by radioligand binding analysis (methods discussed below).
(§4) Cells were grown to 90% confluence, rinsed twice with 1×PBS and stored at −80° C. until further use. To prepare crude cellular membrane fractions, dishes were removed from −80° C. and thawed at room temperature for 5 min. Once thawed, cells were lysed with ice-cold homogenization buffer (50 mM Tris, 1 mM EDTA, 3 mM MgCl2) and gently scraped from the dish. Total cell lysates from 3-5 dishes were collected on ice in 3 ml of ice-cold homogenization buffer. Cells were homogenized at 6,500 rpm (PRO Scientific, Oxford, Conn.) twice for 10 sec and centrifuged at 11,500 rpm for 20 min at 4° C. Supernatants were discarded and cell pellets were resuspended in homogenization buffer and triturated 10 times in ice-cold homogenization buffer. Crude cellular membrane homogenates were stored at −80° C. until further use. On the day of experiments, frozen homogenates were thawed at room temperature, gently triturated 10 times and subsequently dounce homogenized in a 7 ml glass tissue grinder (Wheaton Science Products, Millville, N.J.) by 5 strokes while on ice. […]

[5] = biological target: T2, CB2 (Mus musculus, UniProt P47936); experiment: Radioligand competition binding, [3H]-CP55940, CB2-expressing HEK293 membranes; details: FIG. 2
T2 construct: plasmids containing full coding region of mouse CB1 and CB2; expressed in transfected cells
Description: as §2, §3, §4

[6] = system: homogenates prepared from CB1−/− mice cerebellum; details: insensitive to SR144528; cited from earlier work
[7] = system: hippocampal slices prepared from CB1−/− mice; details: blocked by capsazepine; cited from earlier work

T2 sequence (P47936 whole entry): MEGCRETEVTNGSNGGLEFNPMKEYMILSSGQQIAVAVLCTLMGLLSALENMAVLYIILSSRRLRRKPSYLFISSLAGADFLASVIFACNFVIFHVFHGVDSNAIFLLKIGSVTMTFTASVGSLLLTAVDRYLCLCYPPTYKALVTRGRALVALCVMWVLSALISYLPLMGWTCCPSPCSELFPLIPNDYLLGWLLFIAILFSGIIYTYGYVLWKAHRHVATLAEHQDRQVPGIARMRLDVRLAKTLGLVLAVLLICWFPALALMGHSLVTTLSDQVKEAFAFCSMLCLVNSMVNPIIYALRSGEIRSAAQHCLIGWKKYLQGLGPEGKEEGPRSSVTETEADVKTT
T1 sequence (P47746 whole entry): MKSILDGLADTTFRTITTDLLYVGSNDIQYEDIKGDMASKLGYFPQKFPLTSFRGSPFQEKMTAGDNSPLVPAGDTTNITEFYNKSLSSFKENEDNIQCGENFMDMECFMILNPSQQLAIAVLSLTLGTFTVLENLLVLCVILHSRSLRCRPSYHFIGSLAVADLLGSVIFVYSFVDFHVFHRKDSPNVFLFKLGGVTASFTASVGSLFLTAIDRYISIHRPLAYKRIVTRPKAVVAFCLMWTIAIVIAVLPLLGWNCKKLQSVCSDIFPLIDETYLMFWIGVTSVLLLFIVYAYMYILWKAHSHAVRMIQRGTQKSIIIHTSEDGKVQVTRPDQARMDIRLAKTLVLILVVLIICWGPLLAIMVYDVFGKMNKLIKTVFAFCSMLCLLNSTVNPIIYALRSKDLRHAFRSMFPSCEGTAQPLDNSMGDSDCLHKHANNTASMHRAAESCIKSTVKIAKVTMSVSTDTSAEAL

| Compound | Emax [1] [%] | EC50 [1] [µM] | cytotoxicity at 10 µM [1] [%] | further results |
| --- | --- | --- | --- | --- |
| Cc1ccc(C(=O)c2c(C)n(CCN3CCOCC3)c3ccc(Cl)cc23)c2ccccc12 [CBX-002, (5-chloro-2-methyl-1-(2-morpholino ethyl)-1H-indol-3-yl)(4-methylnaphthalen-1-yl)methanone] | 45 | 30 | – | – |
| Cc1ccc(C(=O)c2c(C)n(CCN3CCOCC3)c3ncccc23)c2ccccc12 [CBX-003, (2-methyl-1-(2-morpholino ethyl)-1H-pyrrolo[2,3-b]pyridin-3-yl)(4-methylnaphthalen-1-yl)methanone] | 71 | 5 | – | – |
| Cc1ccc(C(=O)c2c(C)n(CCN3CCOCC3)c3cc(Cl)ccc23)c2ccccc12 [CBX-004, (6-chloro-2-methyl-1-(2-morpholinoethyl)-1H-indol-3-yl)(4-methylnaphthalen-1-yl)methanone] | 68 | 2 | – | – |
| Cc1ccc(C(=O)c2c3n(c4ccccc24)CCCC3)c2ccccc12 [CBX-005, (4-methylnaphthalen-1-yl)(6,7,8,9-tetrahydropyrido[1,2-a]indol-10-yl)methanone] | 64 | 1.2 | – | – |
| Cc1ccc(C(=O)c2c(C)n(CCN3CCOCC3)c3cc(Cl)cc(Cl)c23)c2ccccc12 [CBX-007, (4,6-dichloro-2-methyl-1-(2-morpholino ethyl)-1H-indol-3-yl)(4-methylnaphthalen-1-yl)methanone] | 56 | 0.6 | – | – |
| CCCCCCC(C)(C)c1ccc([C@@H]2C[C@H](O)CC[C@H]2CCCO)c(O)c1 [CP55940] | – | – | – | potencies and efficacies at killing T98g, MDA231 and sknmc cells [2]: inconsistent potencies and efficacies; competition for WIN-2 binding in NG108-15 cells [3]: did not compete |
| CCCn1c(C)c(C(=O)c2cccc3ccccc23)c2ccccc21 [JWH-015, (2-methyl-1-propyl-1H-indol-3-yl)(naphthalen-1-yl)methanone] | 58 | 1.3 | – | – |
| Cc1c(C(=O)c2cccc3ccccc23)c2ccccc2n1C [JWH-042] | 71 | 3.1 | – | – |
| CCn1c(C)c(C(=O)c2cccc3ccccc23)c2ccccc21 [JWH-043] | 84 | 6.9 | – | – |
| CCCn1cc(C(=O)c2ccc(C)c3ccccc23)c2ccccc21 [JWH-120] | – | – | 0 | – |
| CCCn1c(C)c(C(=O)c2ccc(C)c3ccccc23)c2ccccc21 [JWH-148] | 48 | 2 | – | – |
| O=C(c1cccc2ccccc12)c1cn(CCN2CCOCC2)c2ccccc12 [JWH-200] | 48 | 21 | – | – |
| CCCCCn1cc(C(=O)c2cccc3ccccc23)cc1-c1cc(C)cc(O)c1 [JWH-370] | – | – | 11 | – |
| Cc1ccc(C(=O)c2c(C)n(C)c3ccccc23)c2ccccc12 [JWH-450, (1,2-dimethyl-1H-indol-3-yl)(4-methylnaphthalen-1-yl)methanone] | 66 | 2 | – | – |
| COc1ccc(C(=O)c2c(C)n(CCN3CCOCC3)c3ccccc23)cc1 [Pravadoline] | 88 | 22 | – | – |
| CCCCCc1cc(O)c2c(c1)OC(C)(C)[C@@H]1CCC(C)=C[C@@H]21 [THC] | – | – | – | potencies and efficacies at killing T98g, MDA231 and sknmc cells [2]: inconsistent potencies and efficacies |
| Cc1nccn1CC1CCc2c(c3ccccc3n2C)C1=O (centres unmarked) [TK3] | – | – | 11 | – |

| Compound | Emax [1] [%] | EC50 [1] [µM] | cytotoxicity at 10 µM [1] [%] | further results |
| --- | --- | --- | --- | --- |
| CC1=C(CCN2C(=O)COc3ccccc32)c2ccccc2C1C (centres unmarked) [TK4] | – | – | 10 | – |
| Cc1c(C(=O)Cn2cnc3ccccc3c2=O)c2ccccc2n1C [TK5] | – | – | 3 | – |
| Cc1c(C(=O)C(F)(F)F)c2ccccc2n1CC(=O)NCc1ccccc1 [TK6] | – | – | 8 | – |
| O=C1CCCc2c1c1ccccc1n2Cc1ccccc1 [TK7] | – | – | 19 | – |
| COCCn1cc(C(=O)N2CCCC(CN(C)C)C2)c2ccccc21 (centres unmarked) [TK9] | – | – | 0 | – |
| Cn1cc(C(=O)N2CCCc3ccccc32)c2ccccc21 [TK10] | – | – | 0 | – |
| COc1ccc2c(c1)c(C(=O)N1CCCC(c3nnc4ccccn34)C1)c(C)n2C (centres unmarked) [TK11] | – | – | 10 | – |
| COc1ccc2c(c1)c(C(O)N1CCCC(c3nnc4ccccn34)C1)c(C)n2C (centres unmarked) [TK12] | – | – | 16 | – |
| Cc1c(C(=O)c2ccccc2)c2ccccc2n1CC(=O)N1CCOCC1 [TK16] | – | – | 3 | – |
| Cc1c(CNN2CCOCC2)nn(C)c1C [TK-1] | – | – | 6 | – |
| CC(=O)c1c(C)n(CCOc2ccccc2)c2ccccc12 [TK-2] | 81 | 3.1 | – | – |
| COCCn1c(C)c(C(=O)N2CCC3(CC2)NC(=O)N(C)C3=O)c2ccccc21 [TK-8] | 55 | 886 | – | – |
| CC(=O)c1c(C)n(CCCOc2ccccc2)c2ccccc12 [TK-14] | 92 | 40 | – | – |
| CC(=O)c1c(C)n(CCOc2cccc3ccccc23)c2ccccc12 [TK-15] | 62 | 45 | – | – |
| Cc1ccc(C(=O)c2c(C)n(CCN3CCOCC3)c3ccccc23)c2ccccc12 [TK-18] | 48 | 3 | – | – |
| Cc1c(C(=O)c2cccc3ccccc23)c2cccc3c2n1[C@@H](CN1CCOCC1)CO3 [WIN55212-2] | 87 | 1.5 | – | EC50 ([2]; Homo sapiens, range over the three cell lines (FIG. 1), read-out: potency at killing T98g, MDA231 and sknmc cells): 1.5 to 2.9 µM; gradual toxic efficacy across cell lines ([2]; rank order of cell lines): T98g>MDA>sknmc; competition for [3H]-CP55940 binding at CB1 [4]: competes; competition for [3H]-CP55940 binding at CB2 [5]: competes; binding affinity to a protein expressed by NG108-15 cells [3]: nanomolar affinity; [35S]-GTPγS binding [6]: increase; excitatory transmission [7]: inhibit |
